These are literature values, as cited in patent publication US9622997B2, “Methods for treating insomnia” (Lynn Health Science Institute, Inc., priority 2012, dated 2017).

Where two headings read alike, the source gives them in different places.

The subject of data set [1] is 3 hour phase-advance study population. Particulars: 6 mg, cited from earlier work.
Data set [2] concerns 2 hour phase-advance study population. Conditions: cited from earlier work; for TST: ↑ increase compared to placebo; for WASG: ↓ decrease compared to placebo.
In data set [3] the test system is First-night effect (no PA) study population. Particulars: cited from earlier work; for TST: ↑ increase compared to placebo; for WASG: ↓ decrease compared to placebo, NS.
Data set [4] relates to 2 hour phase-advance study population. Conditions: ↓ decrease compared to placebo, cited from earlier work.
In data set [5] the test system is 3 hour phase-advance study population. The arrangement: TST: unit not given here. Conditions: cited from earlier work; for TST: ↑ increase compared to placebo; for WASG: ↓ decrease compared to placebo.
Data set [6] has as its system 4 hour phase-advance study population. Particulars: 10 mg, cited from earlier work.
For data set [7] the test system is unchanged. Particulars: 10 mg, cited from earlier work. The source holds these as a separate data set.
The conditions of data set [8]: recent study; cited from earlier work.

As for `CN(C)CCC=C1c2ccccc2COc2ccccc21` [Doxepin], the TST entry in data set [1] (↑ increase compared to placebo) is “↑ 51.1”. In data set [1] (↓ decrease compared to placebo), the SOL entry is recorded as “↓ 15.9” and the WASG entry is on record as “↓ 40.0 min”.
In the case of `CC(=O)N(C)c1cccc(-c2ccnc3c(C(=O)c4cccs4)cnn23)c1` [Indiplon], the TST result in data set [2] (10 mg) is recorded as “↑ 11.6”; in data set [2] (20 mg), “↑ 20.6”. The WASG result is “↓ 7.4 min” in data set [2] (20 mg) and “↓ 1.2^NS min” in data set [2] (NS, 10 mg).
Consider `CCC(=O)NCC[C@@H]1CCc2ccc3c(c21)CCO3` [Ramelteon], for which, in data set [3] (8 mg), the TST result is “↑ 17.1” and the WASG entry is “↓ 5.0^NS min”. Further, in data set [3] (16 mg), the TST result was “↑ 13.4” and the WASG entry is “↓ 2.5^NS min”.
For the molecule `CN1C(=O)C(O)N=C(c2ccccc2)c2cc(Cl)ccc21` (stereo not drawn) [Temazepam], the WASG entry in data set [4] (NS, temazepam 15 mg) is “↓ 7.0^NS min”.
With `Cc1ccc(-c2nc3ccc(C)cn3c2CC(=O)N(C)C)cc1` [Zolpidem], the WASG in data set [4] (zolpidem 10 mg, listed as zolpidem) is recorded as 9.4 min; in data set [4] (zolpidem 10 mg) it was “↓ 9.4 min”; in data set [5] (20 mg) it was “↓ 32.3 min”; in data set [5] (NS, 5 mg), “↓ 22.5^NS min”; in data set [5] (NS, 10 mg) it was “↓ 31.2^NS min”; in data set [5] (NS, 15 mg), “↓ 26.9^NS min”. For the same molecule, the WASG entry is “↓ 35.1 min” in data set [6] (↓ decrease compared to placebo) and “↓ 24.7 min” in data set [7] (↓ decrease compared to placebo). The TST result in data set [5] (10 mg) is listed as “↑ 35.7”; in data set [5] (15 mg) it was “↑ 37.3”; in data set [5] (NS, 5 mg), “↑ 35.6^NS”; in data set [5] (NS, 20 mg), “↑ 12.8^NS”; in data set [6] (↑ increase compared to placebo), “↑ 52.8”; in data set [7] (↑ increase compared to placebo), “↑ 47.8”. For the same molecule, the “effect on sleep related GER (acid contact time)” value in data set [8] was “markedly prolonging acid contact time”.
